Test results: patent publication US20260109712A1, “RIFAMYCINS FOR NONTUBERCULOUS MYCOBACTERIA” (priority 2022, published 2026)
In brackets after ≈: the same amount, converted by molar mass. Read-outs that look alike come from different tables or passages of the source.

Legend:
[1] = test system: M. abscessus subspecies abscessus; assay: MIC, Table 9; assay type: cell-based, Mycobacterium abscessus; settings: for MIC: M. abscessus subspecies abscessus
[2] = test system: M. abscessus subspecies massilense; assay: MIC, Table 9; assay type: cell-based, Mycobacterium abscessus; settings: for MIC: M. abscessus subspecies massilense
[3] = test system: M. abscessus subspecies bolletii; assay: MIC, Table 9; assay type: cell-based, Mycobacterium abscessus; settings: for MIC: M. abscessus subspecies bolletii
Δarr M. abscessus = assay: MIC assay, isogenic arr-deleted strain; assay type: cell-based, Mycobacterium abscessus; settings: arr-deleted strain; 90% growth inhibition
In short: (§1)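 Two-fold, ten-point dilutions in 7H9 with 2% DMSO; mid-log culture diluted to OD600=0.1 (1×10^7 CFU/mL). Incubated 3 days at 37 °C, shaking 110 RPM; growth = Day 3 minus Day 0 OD600, expressed as percentage of drug-free growth and plotted against concentration. Two biological replicates.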

[4] = test system: M. intracellulare ATCC 13950; assay: MIC, anti-mycobacterial profiling; assay type: cell-based, Mycobacterium intracellulare; settings: for MIC: mean of two experiments
[5] = Mouse pharmacokinetics studies; assay type: in vivo, CD-1 mice
In short: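 Plasma from K2EDTA-collected blood analysed by LC-MS/MS with multiple-reaction monitoring in electrospray positive mode. Parameters derived by non-compartmental analysis.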

M. chelonae ATCC 35752 = assay: MIC, anti-mycobacterial profiling; assay type: cell-based, Mycobacterium chelonae; settings: for MIC: mean of two experiments
[6] = Plasma protein binding assay (rapid equilibrium dialysis); assay type: in vitro ADME
In short: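 Rapid equilibrium dialysis ran 4 h at 37° C (300 RPM) with compound-spiked plasma (10,000 ng/mL) on one side and PBS on the other. Each side was then mixed 1:1 […] to equalise matrix before LC-MS/MS quantification.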

M. szulgai ATCC 35799 = assay: MIC, anti-mycobacterial profiling; assay type: cell-based, Mycobacterium szulgai; settings: for MIC: mean of two experiments
M. chimaera CCUG 50989T = assay: MIC, anti-mycobacterial profiling; assay type: cell-based, Mycobacterium chimaera; settings: for MIC: mean of two experiments
M. fortuitum ATCC 6841 = assay: MIC, anti-mycobacterial profiling; assay type: cell-based, Mycobacterium fortuitum; settings: for MIC: mean of two experiments
M. abscessus ATCC 19977 = assay: MIC assay in 96-well plate format, wild-type strain; assay type: cell-based, Mycobacterium abscessus; settings: for MIC ratio: WT MIC/Δarr strain MIC
In short: as §1

M. chelonae = assay: MIC, Table 9; assay type: cell-based, Mycobacterium chelonae
[7] = test system: M. avium subsp. hominisuis MAC109; assay: MIC, anti-mycobacterial profiling; assay type: cell-based, Mycobacterium avium; settings: for MIC: mean of two experiments
[8] = test system: M. abscessus subsp. abscessus K21; assay: MIC assay, clinical isolate K21; assay type: cell-based, Mycobacterium abscessus; settings: 90% inhibition of bacterial growth
M. abscessus Bamboo = assay: Broth MBC90 (bMBC90); assay type: cell-based, Mycobacterium abscessus; settings: broth, 5 days
Excerpt: Broth MIC, broth MBC90 (bMBC90), and caseum surrogate MBC90 ([…]) of clinically used antibiotics and of novel ADP-ribosylation-resistant rifabutin analogs against M. abscessus Bamboo have been evaluated.

M. simiae = assay: MIC, Table 9; assay type: cell-based, Mycobacterium simiae
M. fortuitum = assay: MIC, Table 9; assay type: cell-based, Mycobacterium fortuitum
Mycobacterium abscessus = assay: MIC against Mycobacterium abscessus (strain not given); assay type: cell-based
CYP3A4 = settings: human
Description: The threshold cycle (CT) was measured for each isoform cDNA by real time qRT-PCR. The mRNA level of each isoform was assessed by the relative quantifiation with reference gene (GAPDH) as the normalizer method. The normalized fold induction was calculated by 2^−ΔΔCT method, in which 0.1% DMSO was used as the reference (vehicle control). The induction potential of each test compound was analyzed by comparing its fold induction to a pre-determined cutoff value for each lot of hepatocytes. The hepatocytes lots used in this study were validated using 10 known inducers and 5 known non-inducers for each isozyme. A cutoff value is determined based on the validation study for each hepatocytes lot.

THP-1 = assay: Fold-killing in THP-1; assay type: cell-based; settings: expressed in log-10 scale
[9] = Mycobacterium intracellulare, ATCC13950
[10] = Mycobacteroides chelonae, ATCC35752
[11] = Mycobacterium szulgai, ATCC35799
[12] = Mycolicibacterium fortuitum, ATCC6841
[13] = Mycobacteroides abscessus, ATCC19977, M. abscessus ATCC 19977, 90% growth inhibition, read-out: WT Mab MIC
[14] = Mycobacteroides abscessus, ATCC19977, M. abscessus subsp. abscessus ATCC 19977, mean of two experiments, read-out: MIC
[15] = Mycobacteroides abscessus, 120 h
[16] = female, CD-1, mouse, in vivo, 10 mg/kg
[17] = female, CD-1, mouse, in vivo, iv, 10 mg/kg

CO[C@H]1/C=C/O[C@@]2(C)Oc3c(C)c(O)c4c(c3C2=O)C2=NC3(CCN(CC(C)C)CC3)NC2=C(NC(=O)/C(C)=C/C=C/[C@H](C)[C@H](O)[C@@H](C)[C@@H](O)[C@@H](C)[C@H](OC(=O)c2cccnc2)[C@@H]1C)C4=O [5m, 25-O-(3-pyridinecarbonyl)-25-O-desacetyrifabutin]
fold improvement ([1]; 5m vs rifabutin, subspecies abscessus): 30 | MIC [1]: 0.05 µM (≈ 0.0455 µg/mL) | fold improvement ([2]; 5m vs rifabutin, subspecies massilense): 8 | MIC [2]: 0.04 µM (≈ 0.0364 µg/mL) | fold improvement ([3]; 5m vs rifabutin, subspecies bolletii): 40 | MIC [3]: 0.03 µM (≈ 0.0273 µg/mL) | Δarr Mab MIC (Δarr M. abscessus): 26 nM | Fold improvement (RFB-5m vs RFB) [4]: 0.8 | MIC [4]: 0.06 µM (≈ 0.0546 µg/mL) | CL ([5]; mouse, in vivo, 10 mg/kg): 3.0 mL/kg/min | Vd ([5]; mouse, in vivo, 10 mg/kg): 1.6 L/kg | fAUC/MIC, times higher than rifabutin ([5]; mouse, in vivo, po, 10 mg/kg): 128 | Fold improvement (RFB-5m vs RFB) (M. chelonae ATCC 35752): 30 | MIC (M. chelonae ATCC 35752): 0.02 µM (≈ 0.0182 µg/mL) | fold increase in the unbound fraction in plasma ([6]; plasma): at least 100 fold | Fold improvement (RFB-5m vs RFB) (M. szulgai ATCC 35799): 1.7 | MIC (M. szulgai ATCC 35799): 0.006 µM (≈ 0.00546 µg/mL) | Fold improvement (RFB-5m vs RFB) (M. chimaera CCUG 50989T): 0.8 | MIC (M. chimaera CCUG 50989T): 0.06 µM (≈ 0.0546 µg/mL) | Fold improvement (RFB-5m vs RFB) (M. fortuitum ATCC 6841): 60 | MIC (M. fortuitum ATCC 6841): 0.02 µM (≈ 0.0182 µg/mL) | Mab 19977 MIC (M. abscessus ATCC 19977; 90% inhibition of bacterial growth): 25 nM | MIC (M. abscessus ATCC 19977; M. abscessus ATCC 19977, 90% growth inhibition, read-out: WT Mab MIC): 0.024 µM (≈ 0.0218 µg/mL) | Fold improvement (RFB-5m vs RFB) (M. abscessus ATCC 19977; M. abscessus subsp. abscessus ATCC 19977): 55 | MIC (M. abscessus ATCC 19977; M. abscessus subsp. abscessus ATCC 19977, mean of two experiments, read-out: MIC): 0.02 µM (≈ 0.0182 µg/mL) | MIC (M. abscessus ATCC 19977; PK tables 2 and 8, read-out: WT MIC): 0.024 µM (≈ 0.0218 µg/mL) | MIC ratio (M. abscessus ATCC 19977): 0.9 | MIC (M. chelonae): 0.01 µM (≈ 0.0091 µg/mL) | fold improvement (M. chelonae; 5m vs rifabutin): 58 | Fold improvement (RFB-5m vs RFB) [7]: 0.8 | MIC [7]: 0.04 µM (≈ 0.0364 µg/mL) | Mab K21 MIC [8]: 33 nM | MBC (M. abscessus Bamboo): 0.16 µM (≈ 0.146 µg/mL) | MIC (M. simiae): 0.18 µM (≈ 0.164 µg/mL) | fold improvement (M. simiae; 5m vs rifabutin): 56 | MIC (M. fortuitum): 0.01 µM (≈ 0.0091 µg/mL) | fold improvement (M. fortuitum; 5m vs rifabutin): 60

CC[C@H]1OC(=O)[C@H](C)[C@@H](O[C@H]2C[C@@](C)(OC)[C@@H](O)[C@H](C)O2)[C@H](C)[C@@H](O[C@@H]2O[C@H](C)C[C@H](N(C)C)[C@H]2O)[C@](C)(OC)C[C@@H](C)C(=O)[C@H](C)[C@@H](O)[C@]1(C)O [clarithromycin, reference compound]
Δarr Mab MIC (Δarr M. abscessus): 1800 nM | MIC [4, 9]: 0.4 µM (≈ 0.299 µg/mL) | MIC (M. chelonae ATCC 35752; [10]): 0.1 µM (≈ 0.0748 µg/mL) | MIC (M. szulgai ATCC 35799; [11]): 0.3 µM (≈ 0.224 µg/mL) | MIC (M. chimaera CCUG 50989T; CCUG50989T): 0.8 µM (≈ 0.598 µg/mL) | MIC (M. fortuitum ATCC 6841; [12]): 3.2 µM (≈ 2.39 µg/mL) | MIC (M. abscessus ATCC 19977; [13]): 1.45 µM (≈ 1.08 µg/mL) | MIC (M. abscessus ATCC 19977; [14]): 1.5 µM (≈ 1.12 µg/mL) | MIC ratio (M. abscessus ATCC 19977): 0.7 | MIC ([7]; Mycobacterium avium): 0.5 µM (≈ 0.374 µg/mL) | MBC (M. abscessus Bamboo; [15]): 2 µM (≈ 1.5 µg/mL)

CO[C@H]1/C=C/O[C@@]2(C)Oc3c(C)c(O)c4c(c3C2=O)C2=NC3(CCN(CC(C)C)CC3)NC2=C(NC(=O)/C(C)=C\C=C\[C@H](C)[C@H](O)[C@@H](C)[C@@H](O)[C@@H](C)[C@H](OC(C)=O)[C@@H]1C)C4=O [rifabutin, reference compound]
MIC ([1]; Mycobacteroides abscessus): 1.5 µM (≈ 1.27 µg/mL) | MIC ([2]; Mycobacteroides abscessus): 0.3 µM (≈ 0.254 µg/mL) | MIC ([3]; Mycobacteroides abscessus): 1.2 µM (≈ 1.02 µg/mL) | Δarr Mab MIC (Δarr M. abscessus): 31 nM | MIC [4, 9]: 0.05 µM (≈ 0.0424 µg/mL) | ƒAUC/MIC ([5]; Table 18): 0.22 | ƒAUC/MIC ([5]; Table 20): 0.22 | 25-O-desacetyl rifabutin 6 detected in mouse plasma ([5]; female, CD-1, mouse, in vivo): 0.4% | F ([5]; female, CD-1, mouse, in vivo): 70% | Vd ([5]; female, CD-1, mouse, in vivo): 3.5 L/kg | clearance ([5]; female, CD-1, mouse, in vivo): 10.3 mL/min/kg | Vd [5, 16]: 3.51 L/kg | clearance [5, 16]: 10.3 mL/min/kg | C-25 deacylation i.v. ([5]; female, CD-1, mouse, in vivo, iv): 0.4% | Vd [5, 17]: 3.51 L/kg | clearance [5, 17]: 10.3 mL/min/kg | C-25 deacylation p.o. ([5]; female, CD-1, mouse, in vivo, po): 0.4% | AUC ([5]; female, CD-1, mouse, in vivo, po, 10 mg/kg): 11500 ng·h/mL | half-life ([5]; female, mouse, in vivo, CD-1 mice, 10 mg/kg): 240 min | fAUC/MIC ([5]; p.o. doses of 10 mg/kg): 0.22 | MIC (M. chelonae ATCC 35752; [10]): 0.6 µM (≈ 0.508 µg/mL) | ƒu ([6]; 4 h, 10000 ng/mL): 4.5% | fraction unbound at 4 h, 10000 ng/mL ([6]; plasma): 0.0376 | plasma unbound (ƒu, %) ([6]; plasma, 4 h, 10000 ng/mL): 3.8% | unbound fraction ([6]; plasma, 4 h, 10000 ng/mL): 3.76% | MIC (M. szulgai ATCC 35799; [11]): 0.01 µM (≈ 0.00847 µg/mL) | MIC (Mycobacterium abscessus; Mycobacteroides abscessus, 72 h, Table 22, read-out: MICMab): 1.15 µM (≈ 0.974 µg/mL) | MIC (Mycobacterium abscessus; Mycobacteroides abscessus, Table 13, read-out: Mab MIC): 1.1 µM (≈ 0.932 µg/mL) | MIC (Mycobacterium abscessus; Mycobacteroides abscessus, against Mycobacterium abscessus, Table 19, read-out: MIC): 1.1 µM (≈ 0.932 µg/mL) | MIC (Mycobacterium abscessus; against Mycobacterium abscessus, Table 20, read-out: MIC): 1.1 µM (≈ 0.932 µg/mL) | CYP3A4 gene fold-induction at 10 μM (CYP3A4): 40.0 | MIC (M. chimaera CCUG 50989T; CCUG50989T): 0.05 µM (≈ 0.0424 µg/mL) | MIC (M. fortuitum ATCC 6841; [12]): 1.2 µM (≈ 1.02 µg/mL) | Fold-killing in THP-1 (THP-1): 2.3 | MIC (M. abscessus ATCC 19977; [13]): 1.15 µM (≈ 0.974 µg/mL) | MIC (M. abscessus ATCC 19977; [14]): 1.1 µM (≈ 0.932 µg/mL) | MIC (M. abscessus ATCC 19977; Mycobacteroides abscessus, ATCC19977, PK tables 2 and 8, read-out: WT MIC): 1.15 µM (≈ 0.974 µg/mL) | MIC ratio (M. abscessus ATCC 19977): 39.3 | MIC (M. chelonae; Mycobacteroides chelonae): 0.58 µM (≈ 0.491 µg/mL) | MIC ([7]; Mycobacterium avium): 0.03 µM (≈ 0.0254 µg/mL) | MBC (M. abscessus Bamboo; [15]): 5 µM (≈ 4.24 µg/mL) | MIC (M. simiae; Mycobacterium simiae): 10 µM (≈ 8.47 µg/mL) | MIC (M. fortuitum; Mycolicibacterium fortuitum): 0.6 µM (≈ 0.508 µg/mL)
